In ChEMBL document CHEMBL3885861, “Open TG-GATES”:

Organism: Rattus norvegicus
Assay: Open TG-GATES - Regimen: Daily Repeat
Type: toxicity, organism-based, Sprague-Dawley
Set-up: regimen Daily Repeat, gender Male, age 6 weeks
Conditions: in vivo, iv, route intravenous injection; for APTT / Bas / Eos / Fbg / Hb / Ht / Lym / MCH / MCHC / MCV / Mono / Neu / PT / Plat / RBC / Ret / WBC: tissue Blood; for KIDNEY_L / KIDNEY_R / KIDNEY_TOTAL: tissue Kidney; for LIVER: tissue Liver; for ALP / ALT / AST / BUN / CRE / Ca / Cl / DBIL / GLC / IP / K / LDH / Na / PL / RALB / TBIL / TC / TG / TP / gamma-GTP: tissue Plasma
[1] = 1000 mg/kg, 72 h, dose level Middle, time 3 day
[2] = 1000 mg/kg, […], dose level Middle, time 7 day
[3] = 1000 mg/kg, […], dose level Middle, time 14 day
[4] = 1000 mg/kg, […], dose level Middle, time 28 day
[5] = 2000 mg/kg, 72 h, dose level High, time 3 day
[6] = 2000 mg/kg, […], dose level High, time 7 day
[7] = 2000 mg/kg, […], dose level High, time 14 day
[8] = 2000 mg/kg, […], dose level High, time 28 day

## CC(=O)OCC1=C(C(=O)O)N2C(=O)[C@@H](NC(=O)Cc3cccs3)[C@H]2SC1 [CEPHALOTHIN]
[1]
  TERMINAL_BW: 236.8 g
  APTT: 22.6 s
  Bas: 0%
  Eos: 1%
  Fbg: 308.4 mg/dL
  Hb: 13.4 g/dL
  Ht: 38.7%
  Lym: 87.2%
  MCH: 21.3 pg
  MCHC: 34.7%
  MCV: 61.6 fL
  Mono: 2.6%
  Neu: 8.2%
  PT: 16 s
  Plat: 120.2 x10_4/uL
  RBC: 630.2 x10_4/ul
  Ret: 5%
  WBC: 80.1 x10_2/uL
  KIDNEY_L: 1 g
  KIDNEY_R: 1 g
  KIDNEY_TOTAL: 2 g
  LIVER: 10.2 g
  ALP: 1638.6 IU/L
  ALT: 44.6 IU/L
  AST: 71.2 IU/L
  BUN: 18 mg/dL
  CRE: 0.2 mg/dL
  Ca: 10.6 mg/dL
  Cl: 105.2 meq/L
  DBIL: 0 mg/dL
  GLC: 160 mg/dL
  IP: 7.1 mg/dL
  K: 4.5 meq/L
  LDH: 147.8 IU/L
  Na: 141.2 meq/L
  PL: 141.6 mg/dL
  RALB: 3 g/dL
  TBIL: 0.008 mg/dL
  TC: 85.2 mg/dL
  TG: 65.8 mg/dL
  TP: 5.5 g/dL
  gamma-GTP: 1.4 IU/L
[2]
  TERMINAL_BW: 261.5 g
  APTT: 21.6 s
  Bas: 0%
  Eos: 1.2%
  Fbg: 323 mg/dL
  Hb: 13.2 g/dL
  Ht: 38%
  Lym: 87.2%
  MCH: 20.7 pg
  MCHC: 34.8%
  MCV: 59.3 fL
  Mono: 2.2%
  Neu: 9%
  PT: 17 s
  Plat: 135.9 x10_4/uL
  RBC: 640.6 x10_4/ul
  Ret: 5.5%
  WBC: 90.6 x10_2/uL
  KIDNEY_L: 1.1 g
  KIDNEY_R: 1.1 g
  KIDNEY_TOTAL: 2.3 g
  LIVER: 12.2 g
  ALP: 1283 IU/L
  ALT: 35.4 IU/L
  AST: 64.4 IU/L
  BUN: 16.2 mg/dL
  CRE: 0.2 mg/dL
  Ca: 11 mg/dL
  Cl: 105.4 meq/L
  DBIL: 0.002 mg/dL
  GLC: 171.8 mg/dL
  IP: 7.3 mg/dL
  K: 4.2 meq/L
  LDH: 148.4 IU/L
  Na: 141.6 meq/L
  PL: 134.6 mg/dL
  RALB: 3 g/dL
  TBIL: 0.02 mg/dL
  TC: 70.4 mg/dL
  TG: 94.6 mg/dL
  TP: 5.6 g/dL
  gamma-GTP: 1.8 IU/L
[3]
  TERMINAL_BW: 302.8 g
  APTT: 23.4 s
  Bas: 0%
  Eos: 0.8%
  Fbg: 260.8 mg/dL
  Hb: 13.9 g/dL
  Ht: 39%
  Lym: 89.2%
  MCH: 20.2 pg
  MCHC: 35.6%
  MCV: 56.6 fL
  Mono: 2.2%
  Neu: 6.8%
  PT: 16.2 s
  Plat: 123.9 x10_4/uL
  RBC: 689.8 x10_4/ul
  Ret: 5%
  WBC: 109.6 x10_2/uL
  KIDNEY_L: 1.2 g
  KIDNEY_R: 1.3 g
  KIDNEY_TOTAL: 2.5 g
  LIVER: 12.7 g
  ALP: 1231.6 IU/L
  ALT: 35.2 IU/L
  AST: 66.4 IU/L
  BUN: 15.6 mg/dL
  CRE: 0.2 mg/dL
  Ca: 10.5 mg/dL
  Cl: 106 meq/L
  DBIL: 0 mg/dL
  GLC: 170.2 mg/dL
  IP: 6.7 mg/dL
  K: 4.2 meq/L
  LDH: 96.2 IU/L
  Na: 140.6 meq/L
  PL: 143 mg/dL
  RALB: 3 g/dL
  TBIL: 0.01 mg/dL
  TC: 73.6 mg/dL
  TG: 109.8 mg/dL
  TP: 5.6 g/dL
  gamma-GTP: 2.4 IU/L
[4]
  TERMINAL_BW: 376.7 g
  APTT: 24.8 s
  Bas: 0%
  Eos: 1.4%
  Fbg: 294.4 mg/dL
  Hb: 14.9 g/dL
  Ht: 40.5%
  Lym: 88.2%
  MCH: 19.6 pg
  MCHC: 36.8%
  MCV: 53.1 fL
  Mono: 1.8%
  Neu: 7.6%
  PT: 16.2 s
  Plat: 113.8 x10_4/uL
  RBC: 762.8 x10_4/ul
  Ret: 2.8%
  WBC: 98 x10_2/uL
  KIDNEY_L: 1.4 g
  KIDNEY_R: 1.4 g
  KIDNEY_TOTAL: 2.8 g
  LIVER: 14.6 g
  ALP: 1075.4 IU/L
  ALT: 31 IU/L
  AST: 62 IU/L
  BUN: 16.6 mg/dL
  CRE: 0.2 mg/dL
  Ca: 10.4 mg/dL
  Cl: 106.6 meq/L
  DBIL: 0.004 mg/dL
  GLC: 175.4 mg/dL
  IP: 5.9 mg/dL
  K: 4.2 meq/L
  LDH: 148 IU/L
  Na: 142.4 meq/L
  PL: 135.4 mg/dL
  RALB: 3.1 g/dL
  TBIL: 0.018 mg/dL
  TC: 67.6 mg/dL
  TG: 116.4 mg/dL
  TP: 5.9 g/dL
  gamma-GTP: 1.2 IU/L
[5]
  TERMINAL_BW: 233 g
  APTT: 22.3 s
  Bas: 0%
  Eos: 1.2%
  Fbg: 311.4 mg/dL
  Hb: 13.7 g/dL
  Ht: 38.7%
  Lym: 87.2%
  MCH: 21.3 pg
  MCHC: 35.3%
  MCV: 60.3 fL
  Mono: 2.2%
  Neu: 9%
  PT: 16.2 s
  Plat: 128.7 x10_4/uL
  RBC: 642 x10_4/ul
  Ret: 4.9%
  WBC: 71.5 x10_2/uL
  KIDNEY_L: 1 g
  KIDNEY_R: 1 g
  KIDNEY_TOTAL: 2.1 g
  LIVER: 10.2 g
  ALP: 1558.6 IU/L
  ALT: 43 IU/L
  AST: 72.2 IU/L
  BUN: 17.6 mg/dL
  CRE: 0.2 mg/dL
  Ca: 10.4 mg/dL
  Cl: 106 meq/L
  DBIL: 0.004 mg/dL
  GLC: 173.6 mg/dL
  IP: 7.5 mg/dL
  K: 4.4 meq/L
  LDH: 152.4 IU/L
  Na: 141.6 meq/L
  PL: 132.8 mg/dL
  RALB: 3.1 g/dL
  TBIL: 0.03 mg/dL
  TC: 80.6 mg/dL
  TG: 40.4 mg/dL
  TP: 5.5 g/dL
  gamma-GTP: 1.8 IU/L
[6]
  TERMINAL_BW: 255 g
  APTT: 22.8 s
  Bas: 0%
  Eos: 0.8%
  Fbg: 347.2 mg/dL
  Hb: 13.4 g/dL
  Ht: 38.1%
  Lym: 83.8%
  MCH: 20.8 pg
  MCHC: 35.1%
  MCV: 59.4 fL
  Mono: 2.4%
  Neu: 12.4%
  PT: 16.7 s
  Plat: 132.5 x10_4/uL
  RBC: 642.8 x10_4/ul
  Ret: 6.3%
  WBC: 96.8 x10_2/uL
  KIDNEY_L: 1.1 g
  KIDNEY_R: 1.1 g
  KIDNEY_TOTAL: 2.2 g
  LIVER: 12 g
  ALP: 1549.6 IU/L
  ALT: 42.4 IU/L
  AST: 71.2 IU/L
  BUN: 19.6 mg/dL
  CRE: 0.2 mg/dL
  Ca: 10.8 mg/dL
  Cl: 107.6 meq/L
  DBIL: 0 mg/dL
  GLC: 169.2 mg/dL
  IP: 7 mg/dL
  K: 4.5 meq/L
  LDH: 152.8 IU/L
  Na: 141.6 meq/L
  PL: 138.6 mg/dL
  RALB: 3 g/dL
  TBIL: 0.008 mg/dL
  TC: 69.8 mg/dL
  TG: 103.2 mg/dL
  TP: 5.6 g/dL
  gamma-GTP: 2 IU/L
[7]
  TERMINAL_BW: 294.7 g
  APTT: 23.6 s
  Bas: 0%
  Eos: 1%
  Fbg: 269.2 mg/dL
  Hb: 14.4 g/dL
  Ht: 40.1%
  Lym: 84.6%
  MCH: 20.7 pg
  MCHC: 35.9%
  MCV: 57.5 fL
  Mono: 2%
  Neu: 12%
  PT: 16 s
  Plat: 117.3 x10_4/uL
  RBC: 695.2 x10_4/ul
  Ret: 5%
  WBC: 118.2 x10_2/uL
  KIDNEY_L: 1.2 g
  KIDNEY_R: 1.2 g
  KIDNEY_TOTAL: 2.4 g
  LIVER: 12.9 g
  ALP: 1210 IU/L
  ALT: 40.6 IU/L
  AST: 72 IU/L
  BUN: 18.6 mg/dL
  CRE: 0.2 mg/dL
  Ca: 10.6 mg/dL
  Cl: 106.2 meq/L
  DBIL: 0 mg/dL
  GLC: 176.8 mg/dL
  IP: 6.3 mg/dL
  K: 4.3 meq/L
  LDH: 142.8 IU/L
  Na: 141.4 meq/L
  PL: 142.4 mg/dL
  RALB: 3.1 g/dL
  TBIL: 0.018 mg/dL
  TC: 73.6 mg/dL
  TG: 110.2 mg/dL
  TP: 5.8 g/dL
  gamma-GTP: 2.4 IU/L
[8]
  TERMINAL_BW: 341.3 g
  APTT: 24.6 s
  Bas: 0%
  Eos: 1.6%
  Fbg: 283.8 mg/dL
  Hb: 15.6 g/dL
  Ht: 42.2%
  Lym: 84.8%
  MCH: 19.6 pg
  MCHC: 37%
  MCV: 52.9 fL
  Mono: 2.4%
  Neu: 10.8%
  PT: 16.1 s
  Plat: 100.5 x10_4/uL
  RBC: 797.8 x10_4/ul
  Ret: 3.2%
  WBC: 103.9 x10_2/uL
  KIDNEY_L: 1.4 g
  KIDNEY_R: 1.4 g
  KIDNEY_TOTAL: 2.7 g
  LIVER: 13.8 g
  ALP: 899.6 IU/L
  ALT: 38 IU/L
  AST: 69.2 IU/L
  BUN: 16 mg/dL
  CRE: 0.2 mg/dL
  Ca: 10.4 mg/dL
  Cl: 106.2 meq/L
  DBIL: 0.002 mg/dL
  GLC: 166.8 mg/dL
  IP: 5.6 mg/dL
  K: 4.1 meq/L
  LDH: 105.2 IU/L
  Na: 142.6 meq/L
  PL: 129.8 mg/dL
  RALB: 3.2 g/dL
  TBIL: 0.034 mg/dL
  TC: 62.4 mg/dL
  TG: 93.8 mg/dL
  TP: 6.1 g/dL
  gamma-GTP: 1.8 IU/L
